Structures are written as SMILES.

Series [1] concerns p-Her2. The experiment in a line: Immunoblotting of phosphorylated Her2 in SKBR3 cells. The note with it: FIG. 5. Format: cell-based. From the text: The HDAC inhibition seen in many BC cell lines by CAPE and propolis results in the decrease of EGFR over-expression and induction of ER in MDA-231 cells and decrease in ER and PR expression in MCF-7 cells (FIG. 3, 4). CAPE and Propolis cause a decrease in p-Her2, the activated form of Her 2 in SKBR3 cells, likely through intracellular signaling mechanisms (FIG. 5). […] To establish that the epigenetic effects of CAPE can be recapitulated in the natural product, we determined the concentration of CAPE in propolis by HPLC. […] Furthermore, the enhanced effects of HDAC inhibition with propolis, compared to CAPE alone, make it a suitable candidate for a clinical trial in any area of oncology.
Background: A western blot detects proteins with antibodies after separation by electrophoresis.

For series [2], the system named is histone deacetylases (HDAC). The experiment in a line: Western blotting of acetylated histone H3 in lymphoma cell lines. Format: cell-based. The settings on record: RIVA, LY 1, SU-DHL6 lymphoma cell lines, FIG. 9. From the text:
FIG. 9 illustrates by Western Blotting CAPE induced hyperacetylation of Histone Proteins (Ac H3) in the indicated lymphoma cell lines (RIVA, LY 1, SU-DHL6).
(§1) These cell lines serve as in vitro breast cancer models. […] This typically signifies the inhibition of histone deacetylases and is used as a readout of this process via Western blotting. […] Further, FIGS. 3 and 4 provide additional evidence of the epigenetic changes that occur with CAPE and propolis resulting from HDAC inhibition. FIG. 3 depicts the downregulation of the estrogen receptor (ER) and progesterone receptor (PR) in MCF-7 cells and the downregulation of the epidermal growth factor receptor (EGFR) in MDA-231 cells (FIG. 4B). The re-expression of a previously silenced gene, (ER), a key function of HDAC inhibition, is depicted by the upregulation of the estrogen receptor in the ER-negative MDA-231 cell line (FIG. 4A). Furthermore, we have shown the HDAC inhibitor activity is not just restricted to breast cancer, but also in lymphoma (FIG. 9).

Series [3] has as its system MDA-231 xenografts. Description: MDA-231 xenografts in nude mice. Format: in vivo. Here is the method: (§2) Nude mice bearing MDA-231 xenografts were fed CAPE-containing diets and/or treated topically with CAPE, and tumors measured twice/week. bCSC (breast CSC) were isolated from MDA-231 cells and xenografts, and propagated as mammospheres. Cell growth was analyzed using MTT and cell cycle by flow cytometry. Apoptosis was determined by co-staining bCSC with Annexin V and propidium iodide.

In series [4] the test system is VEGF. The note with it: MDA-231 cells; cited from earlier work.
Series [5] relates to bCSC isolated from MDA-231 cells. Description: Breast cancer stem cell (bCSC) clonal growth and self-renewal, mammospheres and soft agar. Type of series: cell-based, human. How it is done:
as §2

Series [6] concerns NF-κB. The note with it: cited from earlier work.
In series [7] the test system is progesterone receptor (PR). The experiment in a line: Immunoblotting of PR in MCF-7 cells. Type of series: cell-based. The settings on record: FIG. 3.
Series [8] relates to endothelial cells. The settings on record: cited from earlier work.
For series [9], the system named is normal human mammary epithelial cells. Description: Effect on normal mammary epithelial cells. Type of series: cell-based.
The subject of series [10] is epidermal growth factor receptor (EGFR). The experiment in a line: Immunoblotting of EGFR in MDA-231 cells. Format: cell-based. The settings on record: FIG. 4B.
The test system of series [11] is multidrug resistance 1 (mdr-1) gene. Description: Gene expression microarray analysis. Format: cell-based.
Series [12] relates to estrogen receptor (ER). Description: ER re-expression in MDA-231 cells by immunofluorescence and RT-PCR. Format: cell-based. The settings on record: ER-negative MDA-231 cells, FIG. 4A.
For series [13], the system named is estrogen receptor (ER). Description: Immunoblotting of ER in MCF-7 cells. The settings on record: FIG. 3. Format: cell-based.
Series [14] concerns histone deacetylases (HDAC). The experiment in a line: Western blotting of acetylated histone proteins in breast cancer cell lines. Format: cell-based, human. The note with it: MDA-231 and MCF-7 cells, FIG. 2.
Text: as §1

Series [15] concerns MDA-MB-231 (MDA-231) cells. Description: Cell growth of MDA-231 cells (MTT). Format: cell-based, human. How it is done:
as §2

`O=C(/C=C/c1ccc(O)c(O)c1)OCCc1ccccc1` [CAPE, caffeic acid phenethyl ester]: the p-Her2 expression result in [1] is “decrease”. In addition, in series [2], the “Acetylation of histone proteins (Ac H3)” value is “hyperacetylation”. Moreover, the “Growth of MDA-231 xenografts” value in [3] (dietary CAPE) is recorded as “significantly inhibited”. Besides, the Tumor volume result in series [3] (subsequent topical treatment after dietary CAPE) is listed as “further decreased”. For the same molecule, the VEGF secretion result in series [4] was “decreases”. Also, in series [5], the bCSC clonal growth result is “decreased”. Besides, the “bCSC and progenitor self-renewal (growth in soft agar)” value in series [5] (pretreatment with 20 μM) was “decreased growth in soft agar”. Besides, in series [6], the NF-κB inhibition result is recorded as “inhibits”. For the same molecule, the PR expression result in [7] is on record as “downregulation”. Further, the Tubule formation result in [8] is “inhibits”. The “Effect on normal cells” value in series [9] is recorded as “innocuous”. The EGFR expression result in [10] is “downregulation”. For the same molecule, the mdr-1 gene expression entry in series [11] is on record as “down-regulates”. Besides, in series [12], the “ER expression (re-expression of silenced gene)” value was “upregulation”. For the same molecule, the ER expression entry in series [13] is “downregulation”. Besides, the “HDAC inhibition (accumulation of acetylated histone proteins)” value in [14] is “HDAC inhibitors”. The “Growth of MDA-231 cells” value in [15] is “inhibits growth”.
Regarding `Cc1[nH]c2ccccc2c1CCNCc1ccc(/C=C/C(=O)NO)cc1` [LBH 589, reference compound], the “ER expression (re-expression of silenced gene)” value in [12] is recorded as “re-expression”.
